US7807162B2, “Single domain VHH antibodies against von Willebrand factor” (Ablynx N.V., priority 2005, dated 2010)
Where “and” joins values, the source holds several entries; their conditions need not be identical. Equal values may be shown once.

Legend:
[1] = test system: ADAMTS-13; experiment: Cleavage of recombinant A1-A2-A3 vWF fragment by ADAMTS-13 (Western Blot); assay type: biochemical, human; settings: control; EDTA in NPP
Method: In a second type of experiment, different reaction mixtures were prepared as summarized in table 60, however, without the addition of the A1A2A3 construct. The A1A2A3 construct is a recombinant fragment consisting out of the A1, A2 and A3 domain of vWF. Mixtures were pre-incubated for 5 minutes at 37° C. after which the A1A2A3 fragment is added and the mixture is incubated in a waterbath overnight at 37° C. […] The blot was blocked for 2 hours at room temperature with blockbuffer (1:1 Odyssey blockbuffer in 1×TBS pH=7.4) and incubated with Rabbit polyclonal anti-vWF (DAKO). Alexa Fluor 680 goat anti-rabbit was used for detection. Scanning was done on the ODYSSEY to detect the degradation products.
In a second assay, a recombinant fragment containing the A1-A2-A3 domain of vWF was mixed with normal pool plasma (NPP) containing ADAMTS-13, resulting in proteolytic cleavage of the fragment which was observed by a Western Blot analysis.

[2] = test system: ristocetin-induced platelet aggregation; experiment: Ristocetin-induced platelet aggregation (RIPA) ex vivo in blood of treated baboons; settings: baboons 4-10; further +1 mg/kg Plavix on top of 5 mg/kg Aspegic + 60 IU/kg Heparin + 1 mg/kg Plavix
Method: Platelet aggregations were performed on a Chronolog whole blood and optical Aggregometer (Model 560CA, Chronolog, USA). PRP was prepared (collected on 0.38 mol/L citrate), by centrifuging the whole blood at 1200 rpm for 5 minutes. The upper fraction containing the PRP was carefully removed. The lower fraction was further centrifuged at 3000 rpm for 10 minutes to prepare platelet poor plasma (PPP). Platelets were counted in PRP and diluted in PPP to a final concentration of 200.000 platelets per microliter. 3 mg/ml ristocetin (DAKO) was added and aggregation was measured.
The GPIb-IX-V dependent platelet aggregation through vWF is measured using ristocetin as a modulator. The % aggregation is measured at each time point and at each dose.

[3] = test system: cyclic flow reductions (CFRs) in injured, stenosed femoral artery; experiment: Folts model in baboons: Aspegic-Heparin-Plavix combination with ALX-0081 on top; assay type: in vivo, baboon (Papio ursinus); settings: combined with 5 mg/kg Aspirin and 60 IU/kg Heparin
Method: Extra Heparin was administered at different time points to sustain a certain level (aPTT should be at least doubled versus control). […] The anti-thrombotic effect was quantified by comparing the length of CFRs before and after drug administration. When full inhibition of CFRs was observed, a new injury was applied. Epinephrin was injected and continued till the end of the experiment. […] (1), 3, 10 or 30 μg/kg. […] The specifications of the baboons that were used in this study are represented in table 49.

[4] = Bleeding analysis in Folts baboons (blood loss in gauzes); settings: for therapeutic window in the Folts model: antithrombotic effect versus blood loss; for Average of total blood loss: sum of blood loss from the first five doses of test compound, relative to the second control gauze
Method: To analyze bleeding, an incision was made with a scalpel in the groin. This was done at 15 minutes after recording baseline flow, when the injury was made in the artery. Gauzes were inserted in the wound and replaced every 30 minutes just before each new dose of test compound. The amount of blood loss after each dose of test compound was determined by weighing the gauzes.

[5] = test system: cyclic flow reductions (CFRs) in injured, stenosed femoral artery; experiment: Folts thrombosis model in baboons: length/inhibition of cyclic flow reductions (CFRs); assay type: in vivo, baboon (Papio ursinus); settings: for effective dose: Folts model
Method: The study protocol that was applied is the original Folts model and some modifications described below (Folts J D, et al, Circulation. 1976; 54:365-370). Healthy male or female baboons (Papio ursinus) were used. The animals were 8-17 kg of weight and were disease-free for at least 2 weeks prior to use. The baboons were fed with dry standard food only. The baboons were used at different time points. […] Animals were anaesthetized and body temperature is maintained at 37° C. with a heating table. A segment of a femoral artery was dissected free from surrounding tissue. A shunt was placed between the femoral vein and femoral artery to obtain high shear rates. The mean and phasic blood flow was recorded continuously throughout the experiment. Baseline flow was recorded for 20 minutes. […] A clamp was placed over the injured site to create an external stenosis. A gradual decline in blood flow due to platelet adhesion and aggregation was observed. When flow was reduced to zero, blood flow was restored by opening the clamp to dislodge the platelet-rich thrombus. This repetitive pattern of decreasing blood flow following mechanical restoration is referred to as cyclic flow reductions (CFRs). Additional endothelial injury was repeated if needed to finally obtain stable CFRs in these baboons. The number of times the thrombus needed to be dislodged determines the number of CFRs. FIG. 24 illustrates blood flow pattern during the Folts model in baboons. […] This procedure was repeated for several times with escalating doses of the test substance. The anti-thrombotic effect was quantified by comparing the length of CFRs before and after drug administration. When full inhibition of CFRs was observed, a new injury was applied in order to confirm that the inhibition was an effect of the treatment but not of a natural healing phenomenon.

[6] = PT during the Folts model; assay type: in vivo, baboon (Papio ursinus); settings: 240 IU/kg dose
[7] = set-up: species or system baboon (Papio ursinus); settings: in vivo
Method: The aPTT values observed during the Folts model studies are summarized. […] In these animals, aPTT values are prolonged from the 30-60 IU/kg dose on, as is also observed in patients. Heparin acts as an anticoagulant by forming a complex with antithrombin and catalyzing the inhibition of activated blood coagulation factors such as XIa, IXa, Xa and thrombin (factor IIa). These factors are all involved in the intrinsic coagulation cascade of which its functionality is measured in the aPTT test.

[8] = test system: cyclic flow reductions (CFRs) in injured, stenosed femoral artery; experiment: Use of vWF as an antidote for ALX-0081 in the baboon Folts model; assay type: in vivo, baboon (Papio ursinus)
Description: The experimental procedure followed the original Folts model with the modifications as described in the previous example 18.
Healthy male baboons (Papio ursinus) were used in this study. The animals were 9-12 kg of weight and were disease-free for at least 2 weeks prior to use. The baboons were fed with dry standard food only.

[9] = Plavix final dose 2.5 mg/kg, individual baboons 9-12, 2.5 mg/kg
[10] = new injury applied at full inhibition of CFRs
[11] = number of experiments with inhibition / total number of independent repeats

In the case of `O=C(O)CN(CCN(CC(=O)O)CC(=O)O)CC(=O)O` [EDTA], the “effect on the cleavage of the A1-A2-A3 vWF fragment by ADAMTS-13” value [1] is reported as “inhibition of cleavage of the fragment”.
For `COC(=O)[C@H](c1ccccc1Cl)N1CCc2sccc2C1` [Plavix], the “% ristocetin-induced platelet aggregation” value [2] was 42% and 63% and 66% and 83% and 59% and 76% and 60%, the “dose of Plavix required for full inhibition, fold lower than Plavix alone” value [3] was 2.5 fold and the “Blood loss relative to the second control gauze, Average” value ([4]; Plavix final dose 1 mg/kg) was 1.4. The “Blood loss relative to the second control gauze” value ([4]; Plavix final dose 1 mg/kg, individual baboons 9-12, 1 mg/kg) was 0.6 and 1.3 and 1.6 and 1.2, the “Blood loss relative to the second control gauze, Average” value ([4]; Plavix final dose 2.5 mg/kg) was 1.2 and the “Blood loss relative to the second control gauze” value [4, 9] was 1.5 and 1.4 and 1.1 and 1.0. For the same compound, the “Blood loss relative to the second control gauze, Average” value ([4]; Plavix final dose 5 mg/kg) was 4.5, the “Blood loss relative to the second control gauze” value ([4]; Plavix final dose 5 mg/kg, individual baboons 9-12, 5 mg/kg) was 5.1 and 4.7 and 1.4 and 6.6 and the “Blood loss relative to the second control gauze, Average” value ([4]; Plavix final dose 10 mg/kg) was 7.6. The “Blood loss relative to the second control gauze” value ([4]; Plavix final dose 10 mg/kg, individual baboons 9-12, 10 mg/kg) was 6.5 and 4.5 and 5.8 and 13.6, the “Blood loss relative to the second control gauze, Average” value ([4]; Plavix final dose 20 mg/kg) was 4.9 and the “Blood loss relative to the second control gauze” value ([4]; Plavix final dose 20 mg/kg, individual baboons 9-12, 20 mg/kg) was 3.7 and 4.1 and 9.1 and 2.6. The “therapeutic window in the Folts model” value [4] was “much more narrow”, the “Blood loss relative to the second control gauze” value ([4]; at the highest dose) was “up to 9 fold” and the “Average of total blood loss” value [4] was 19.4. For the same compound, the “time after injection at which the inhibitory effect on CFR length started” value ([5]; 2.5 mg/kg final dose) was 10 min, the effective dose [5] was 5 mg/kg and the effective dose ([5]; inhibition of CFRs) was 5 mg/kg. The “Length of CFRs” value ([5]; Plavix final dose 1 mg/kg, individual baboons 9, 11, 12, 1 mg/kg) was 189 s and 132 s and 179 s, the “Length of CFRs” value [5, 9] was 883 s and 400 s and 258 s and >1800 s and the “Length of CFRs” value ([5]; Plavix final dose 5 mg/kg, individual baboons 9-12) was greater than 1800 s. The “Length of CFRs” value ([5]; Plavix final dose 10 mg/kg, individual baboons 9-12) was greater than 1800 s, the “Length of CFRs” value ([5]; Plavix final dose 20 mg/kg, individual baboons 9-12) was greater than 1800 s and the “Length of CFRs” value ([5]; Plavix-treated, after Epinephrin, individual baboons 9-12) was 241 s and 91 s and 83 s and 66 s. For the same compound, the “final dose at which full inhibition of CFRs was obtained” value ([5]; baboon 12) was 2.5 mg/kg, the “CFRs upon a new injury” value [5, 10] was “CFRs remained inhibited” and the “Inhibition of CFRs” value [5, 11] was 4/4. The “Inhibition of CFRs after administration of Epinephrin” value (“Inhibition of CFRs … of Epinephrin” for short) [5, 11] was 0/4, the “Inhibition of CFRs after new injury” value [5, 11] was 4/4 and the “final dose at which full inhibition of CFRs was obtained” value ([5]; the other three baboons) was 5 mg/kg.
With Heparin the “effect on the PT time” value [6] was “minor increase in PT”, the “dose from which aPTT values are prolonged” value [7] was 30-60 IU/kg and the “Length of CFRs” value ([5]; Heparin final dose 15 IU/kg, individual baboons 6, 7, 8) was 630 s and 208 s and 255 s. The “Length of CFRs” value ([5]; Heparin final dose 30 IU/kg, individual baboons 6, 7, 8) was 355 s and 241 s and 320 s, the “Length of CFRs” value ([5]; Heparin final dose 60 IU/kg, individual baboons 6, 7, 8) was 432 s and 246 s and 332 s and the “Length of CFRs” value ([5]; Heparin final dose 120 IU/kg, individual baboons 6, 7, 8) was 610 s and 160 s and 206 s. The “Length of CFRs” value ([5]; Heparin final dose 240 IU/kg, individual baboons 6, 7, 8) was >1800 s and 221 s and 169 s, the “Length of CFRs” value ([5]; Heparin-treated, after Epinephrin, baboons 6, 7) was 109 s and 65 s and the “dose at which full inhibition of CFRs was obtained” value ([5]; baboon 6, first dose) was 15 IU/kg. The “CFRs upon a new injury” value ([5]; baboon 6, highest dose of 240 IU/kg) was “CFRs were inhibited even after a new injury”, the “Inhibition of CFRs” value ([5]; baboons 7 and 8, doses as high as 240 IU/kg) was “no inhibition of the CFRs could be obtained” and the “CFRs upon a new injury” value [5, 10] was “the CFRs returned each time”. For the same compound, the “Inhibition of CFRs” value [5, 11] was 1/3, the “Inhibition of CFRs … of Epinephrin” value [5, 11] was 0/2 and the “Inhibition of CFRs after new injury” value [5, 11] was 1/3.
With “Reopro: drug currently used in the clinic, comparator in the Folts model” the “therapeutic window in the Folts model” value [4] was “much more narrow”, the “Average of total blood loss” value [4] was 44 and the effective dose [5] was 0.25 mg/kg. For the same compound, the effective dose ([5]; inhibition of CFRs, final dose, ALX-0081: + […] dose/kg/hour) was 0.17 to 0.42 mg/kg, the “Length of CFRs” value ([5]; Reopro final dose 20 μg/kg, individual baboons 13, 14, 15) was 98 s and 82 s and 254 s and the “Length of CFRs” value ([5]; Reopro final dose 70 μg/kg, individual baboons 13, 14, 15) was 90 s (2×) and 248 s. The “Length of CFRs” value ([5]; Reopro final dose 170 μg/kg, individual baboons 13, 14, 15) was 90 s and >1800 s (2×), the “Length of CFRs” value ([5]; Reopro final dose 420 μg/kg, individual baboons 13, 14, 15) was greater than 1800 s and the “Length of CFRs” value ([5]; Reopro final dose 920 μg/kg, individual baboons 13, 14, 15) was greater than 1800 s. The “Length of CFRs” value ([5]; Reopro-treated, after Epinephrin, individual baboons 13, 14, 15) was greater than 1200 s, the “final dose needed for full inhibition of the CFRs” value ([5]; baboons 13, 14 and 15, bolus injection only) was 0.17 to 0.42 mg/kg and the “CFRs upon a new injury” value [5, 10] was “complete inhibition of the CFRs was retained”. The “Inhibition of CFRs” value [5, 11] was 3/3, the “Inhibition of CFRs … of Epinephrin” value [5, 11] was 3/3 and the “Inhibition of CFRs after new injury” value [5, 11] was 3/3.
For “vWF: vWF evaluated as an antidote for ALX-0081”, the “reversal of the activity of ALX-0081 on CFRs” value ([8]; CFRs returned after 250 IU plus extra 250 IU of vWF) was “can be reversed by administration of vWF” and the “Length of CFRs” value ([8]; second 250 IU vWF after 30 μg/kg + 45 μg/kg/hour ALX-0081, baboons 1-3) was 246 s and 256 s and 230 s.
